What was measured:
CD137 [1] = molecular target: T1, CD137 (Homo sapiens, UniProt Q07011); experiment: CD137 reporter assay, co-culture with Nectin-4 tumour cells; format: cell-based; set-up: host or cells: Jurkat reporter cells;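 note: jurkat reporter cells co-cultured with tumour cells and test article for 6 h, luminescence signal relative to Jurkat plus tumour cells lacking test article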
[2] = system: human PBMC co-cultured with 4T1-D02 (Nectin4+); experiment: Human PBMC-4T1 co-culture (cytokine release) assay; format: cell-based; conditions: anti-CD3 stimulated PBMC, 48 hours
Experimental: Mouse mammary gland tumor cell line 4T1-1 (4T1-Parental) and murine Nectin-4 overexpressing 4T1 (4T1-D02) were cultured in RPMI1640 supplemented with 10% heat-inactivated Fetal Bovine Serum, 100 I.U/ml Penicillin and 100 I.U/Streptomycin, 20 mM HEPES, 1× Non-Essential Amino Acids, and 2 mM L-Glutamine (RPMI working medium). Frozen PBMCs from healthy human donors were thawed and washed one time in room temperature PBS, and then resuspended in RPMI working medium. For tumor cell and PBMC co-culture, 10000 PBMCs and 2000 tumor cells (5:1) were mixed and plated in each well of a 384 well plate. For stimulating human PBMCs, 125 ng/ml of soluble anti-CD3 mAb (clone OKT3) was added to the culture on day 0. Test, control compounds or vehicle controls were added to respective wells and brought the final volume per well to 100u1. Plates were incubated in a 37° C. cell culture incubator with 5% CO2 for up to three days. Supernatants were collected 48 hours after stimulation, and human IL-2 and IFFγ were detected using HTRF assays. Raw data were analyzed using Excel or Prism software to generate standard curves to interpolate protein concentrations. Data represents one study with three different donor PBMC tested in experimental duplicates.

CD137 [3] = molecular target: T1, CD137; experiment: CD137 Biacore (SPR) binding assay; set-up: purchased R&D systems; conditions: biotinylated human CD137, 25° C.
Experimental: Biacore experiments were performed to determine ka (M^−1s^−1), kd (s^−1), KD (nM) values of heterotandem peptides binding to human CD137 protein. […] The protein was desalted to remove uncoupled biotin using spin columns into PBS.
For analysis of peptide binding, a Biacore T200 or a Biacore 3000 instrument was used with a XanTec CMD500D chip. Streptavidin was immobilized on the chip using standard amine-coupling chemistry at 25° C. with HBS-N (10 mM HEPES, 0.15 M NaCl, pH 7.4) as the running buffer. Briefly, the carboxymethyl dextran surface was activated with a 7 min injection of a 1:1 ratio of 0.4 M 1-ethyl-3-(3-dimethylaminopropyl) carbodiimide hydrochloride (EDC)/0.1 M N-hydroxy succinimide (NHS) at a flow rate of 10 μl/min. For capture of streptavidin, the protein was diluted to 0.2 mg/ml in 10 mM sodium acetate (pH 4.5) and captured by injecting 120 μl of onto the activated chip surface. Residual activated groups were blocked with a 7 min injection of 1 M ethanolamine (pH 8.5) and biotinylated CD137 captured to a level of 270-1500 RU. Buffer was changed to PBS/0.05% Tween 20 and a dilution series of the peptides was prepared in this buffer with a final DMSO concentration of 0.5%. The top peptide concentration was 500 nM with 6 further 2-fold or 3-fold dilutions. The SPR analysis was run at 25° C. at a flow rate of 90 μl/min with 60 seconds association and 900 seconds dissociation. After each cycle a regeneration step (10 μl of 10 mM glycine pH 2) was employed. Data were corrected for DMSO excluded volume effects as needed. All data were double-referenced for blank injections and reference surface using standard processing procedures and data processing and kinetic fitting were performed using Scrubber software, version 2.0c (BioLogic Software). Data were fitted using simple 1:1 binding model allowing for mass transport effects where appropriate.

human EphA2 protein = human EphA2 protein (Homo sapiens, UniProt P29317); experiment: EphA2 Biacore (SPR) binding assay; conditions: biotinylated human EphA2, 25° C.
Experimental: Biacore experiments were performed to determine ka (M^−1s^−1), kd (s^−1), KD (nM) values of heterotandem peptides binding to human EphA2 protein.
EphA2 were biotinylated with EZ-Link™ Sulfo-NHS-LC-Biotin for 1 hour in 4 mM sodium acetate, 100 mM NaCl, pH 5.4 with a 3× molar excess of biotin over protein. The degree of labelling was determined using a Fluorescence Biotin Quantification Kit (Thermo) after dialysis of the reaction mixture into PBS. For analysis of peptide binding, a Biacore T200 instrument was used with a XanTec CMD500D chip. Streptavidin was immobilized on the chip using standard amine-coupling chemistry at 25° C. with HBS-N (10 mM HEPES, 0.15 M NaCl, pH 7.4) as the running buffer. Briefly, the carboxymethyl dextran surface was activated with a 7 min injection of a 1:1 ratio of 0.4 M 1-ethyl-3-(3-dimethylaminopropyl) carbodiimide hydrochloride (EDC)/0.1 M N-hydroxy succinimide (NHS) at a flow rate of 10 it/min. For capture of streptavidin, the protein was diluted to 0.2 mg/ml in 10 mM sodium acetate (pH 4.5) and captured by injecting 120 μl onto the activated chip surface. Residual activated groups were blocked with a 7 min injection of 1 M ethanolamine (pH 8.5):HBS-N (1:1). Buffer was changed to PBS/0.05% Tween 20 and biotinylated EphA2 was captured to a level of 500-1500 RU using a dilution of protein to 0.2 μM in buffer. A dilution series of the peptides was prepared in this buffer with a final DMSO concentration of 0.5% with a top peptide concentration was 50 or 100 nM and 6 further 2-fold dilutions. The SPR analysis was run at 25° C. at a flow rate of 90 μl/min with 60 seconds association and 900-1200 seconds dissociation. Data were corrected for DMSO excluded volume effects. All data were double-referenced for blank injections and reference surface using standard processing procedures and data processing and kinetic fitting were performed using Scrubber software, version 2.0c (BioLogic Software). Data were fitted using simple 1:1 binding model allowing for mass transport effects where appropriate.

CD137 [4] = molecular target: T1, CD137; experiment: CD137 reporter assay, co-culture with EphA2 tumour cells; format: cell-based; set-up: host or cells: Jurkat reporter cells; conditions: tumour target EphA2, co-culture with SC-OV-3, 6 h
Summary of the method: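 Jurkat CD137 reporter cells co-cultured with tumour cells and serially diluted test articles in RPMI-1640 + 1% FBS, 6 h at 37 °C, 5% CO2. Luminescence read after Bio-Glo; fold change over cells-only background fitted log(agonist) vs response for EC50 (nM) and maximal fold induction.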

T1 sequence (Q07011 24-255): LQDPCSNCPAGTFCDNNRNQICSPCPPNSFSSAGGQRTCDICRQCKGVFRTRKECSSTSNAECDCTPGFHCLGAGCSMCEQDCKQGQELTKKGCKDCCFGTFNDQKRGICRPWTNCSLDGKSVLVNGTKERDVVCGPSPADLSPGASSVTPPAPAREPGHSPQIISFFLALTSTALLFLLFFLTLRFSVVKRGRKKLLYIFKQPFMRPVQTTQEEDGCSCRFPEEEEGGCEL
human EphA2 protein, sequence (P29317 24-976): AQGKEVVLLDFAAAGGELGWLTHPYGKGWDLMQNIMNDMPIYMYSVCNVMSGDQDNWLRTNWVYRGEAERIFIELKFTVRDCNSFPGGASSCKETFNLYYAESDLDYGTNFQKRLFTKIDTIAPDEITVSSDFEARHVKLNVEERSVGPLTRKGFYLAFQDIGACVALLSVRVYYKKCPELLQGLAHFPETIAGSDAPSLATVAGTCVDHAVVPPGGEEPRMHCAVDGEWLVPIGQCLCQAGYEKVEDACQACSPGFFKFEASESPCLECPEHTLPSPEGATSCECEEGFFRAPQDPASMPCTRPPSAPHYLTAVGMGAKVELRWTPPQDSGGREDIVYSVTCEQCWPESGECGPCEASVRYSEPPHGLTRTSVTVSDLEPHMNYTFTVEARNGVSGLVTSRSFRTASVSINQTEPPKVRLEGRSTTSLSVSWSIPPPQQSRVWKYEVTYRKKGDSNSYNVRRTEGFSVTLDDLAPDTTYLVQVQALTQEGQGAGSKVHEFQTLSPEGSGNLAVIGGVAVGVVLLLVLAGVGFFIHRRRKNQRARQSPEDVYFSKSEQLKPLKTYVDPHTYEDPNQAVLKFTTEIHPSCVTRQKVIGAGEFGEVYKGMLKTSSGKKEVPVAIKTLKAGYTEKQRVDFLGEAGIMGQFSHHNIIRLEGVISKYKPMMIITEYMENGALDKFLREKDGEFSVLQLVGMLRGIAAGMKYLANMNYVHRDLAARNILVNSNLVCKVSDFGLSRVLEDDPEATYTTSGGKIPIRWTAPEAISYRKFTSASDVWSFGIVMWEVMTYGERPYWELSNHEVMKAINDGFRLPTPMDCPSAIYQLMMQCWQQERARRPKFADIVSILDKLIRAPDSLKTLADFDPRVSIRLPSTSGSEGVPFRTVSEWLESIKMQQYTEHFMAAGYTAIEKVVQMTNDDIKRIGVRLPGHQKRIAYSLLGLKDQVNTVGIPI

Compound: CCCC[C@@H]1NC(=O)[C@H](Cc2ccc(O)cc2)NC(=O)[C@@H]2CCCN2C(=O)[C@H](CC(=O)O)NC(=O)[C@@H](C)NC(=O)[C@H](Cc2ccccc2)NC(=O)[C@@H]2CSCCC(=O)N3CN(CN(C3)C(=O)CCSC[C@@H](C(=O)N[C@@H](CNC(=O)CCOCCOCCOCCOCCOCCOCCOCCOCCOCCOCCOCCOCCn3cc(CCC(=O)NCCC(=O)N(C)CC(=O)N(C)CC(=O)N(C)CC(=O)N(C)CC(=O)N(C)CC(=O)N(C)CC(=O)N(C)CC(=O)N(C)CC(=O)N(C)CC(=O)N(C)CC(=O)N[C@H]4CSCCC(=O)N5CN6CN(C5)C(=O)CCSC[C@H](NC(=O)[C@@H](CC(=O)O)NC(=O)[C@H](Cc5cccc7ccccc57)NC(=O)[C@@H]5CCCN5C4=O)C(=O)N[C@@H](CCSC)C(=O)N[C@@H](CCCCNC(=N)N)C(=O)N[C@@H](CC(=O)O)C(=O)N[C@@H](Cc4c[nH]c5ccccc45)C(=O)N[C@@H](CO)C(=O)N[C@@H]([C@@H](C)O)C(=O)N4CCC[C@H]4C(=O)N4C[C@H](O)C[C@H]4C(=O)N[C@@H](Cc4c[nH]c5ccccc45)C(=O)N[C@H](C(N)=O)CSCCC6=O)nn3)C(N)=O)NC1=O)C(=O)CCSC[C@H](NC(=O)[C@H](C)NC(C)=O)C(=O)N[C@@H]([C@@H](C)CC)C(=O)N[C@@H](CCC(=O)O)C(=O)N[C@@H](CCC(=O)O)C(=O)NCC(=O)N[C@@H](CCC(N)=O)C(=O)N[C@@H](Cc1ccc(O)cc1)C(=O)N2 [BCY9351]
- fold induction at 0.1 µM (CD137 [1]; read-out: Fold Induction over Background at 100 nM): < 2
- max IFN-y [2]: No Activity up to 1 μM
- Kd (CD137 [3]): 3640 nM

Compound: CCCC[C@@H]1NC(=O)[C@H](Cc2ccc(O)cc2)NC(=O)[C@@H]2CCCN2C(=O)[C@H](CC(=O)O)NC(=O)[C@H](C)NC(=O)[C@H](Cc2ccccc2)NC(=O)[C@@H]2CSCCC(=O)N3CN(CN(C3)C(=O)CCSC[C@@H](C(=O)N[C@@H](CNC(=O)CCc3cn(CCOCCOCCOCCOCCOCCOCCOCCOCCOCCOCCNC(=O)NCCC(=O)N(C)CC(=O)N(C)CC(=O)N(C)CC(=O)N(C)CC(=O)N(C)CC(=O)N(C)CC(=O)N(C)CC(=O)N(C)CC(=O)N(C)CC(=O)N(C)CC(=O)N[C@@H](C)C(=O)N[C@@H](CCCCNC(=N)N)C(=O)N[C@@H](CC(=O)O)C(=O)N[C@H]4CSCCC(=O)N5CN6CN(C5)C(=O)CCSC[C@H](NC(=O)[C@H](CC(C)C)NC(=O)[C@@H]5CCCN5C(=O)[C@H](CC(N)=O)NC(=O)[C@H](C(C)C)NC(=O)[C@H](CC(C)C)NC(=O)[C@@H]5C[C@@H](O)CN5C4=O)C(=O)N[C@@H](CC(C)C)C(=O)N[C@@H](Cc4c[nH]cn4)C(=O)N4CCC[C@H]4C(=O)N[C@H](CC(=O)O)C(=O)N[C@@H](Cc4c[nH]c5ccccc45)C(=O)N[C@@H](CCCCNC(=N)N)C(=O)N[C@H](C(N)=O)CSCCC6=O)nn3)C(N)=O)NC1=O)C(=O)CCSC[C@H](NC(=O)[C@H](C)NC(C)=O)C(=O)N[C@@H]([C@@H](C)CC)C(=O)N[C@@H](CCC(=O)O)C(=O)N[C@@H](CCC(=O)O)C(=O)NCC(=O)N[C@@H](CCC(N)=O)C(=O)N[C@@H](Cc1ccc(O)cc1)C(=O)N2 [BCY9647]
- Kd (human EphA2 protein): 1.69 nM
- Kd (CD137 [3]): 206 nM
- EC50 (CD137 [4]): 7.2 nM
- Fold Induction over Background (CD137 [4]): 24 fold

Compound: CCCC[C@@H]1NC(=O)[C@H](Cc2ccc(O)cc2)NC(=O)[C@@H]2CCCN2C(=O)[C@H](CC(=O)O)NC(=O)[C@H](C)NC(=O)[C@H](Cc2ccccc2)NC(=O)[C@@H]2CSCCC(=O)N3CN(CN(C3)C(=O)CCSC[C@@H](C(=O)N[C@@H](CNC(=O)CCc3cn(CCOCCOCCOCCOCCOCCOCCOCCOCCOCCOCCOCCOCCOCCOCCOCCOCCOCCOCCOCCOCCOCCOCCOCCNC(=O)NCCC(=O)N(C)CC(=O)N(C)CC(=O)N(C)CC(=O)N(C)CC(=O)N(C)CC(=O)N(C)CC(=O)N(C)CC(=O)N(C)CC(=O)N(C)CC(=O)N(C)CC(=O)N[C@@H](C)C(=O)N[C@@H](CCCCNC(=N)N)C(=O)N[C@@H](CC(=O)O)C(=O)N[C@H]4CSCCC(=O)N5CN6CN(C5)C(=O)CCSC[C@H](NC(=O)[C@H](CC(C)C)NC(=O)[C@@H]5CCCN5C(=O)[C@H](CC(N)=O)NC(=O)[C@H](C(C)C)NC(=O)[C@H](CC(C)C)NC(=O)[C@@H]5C[C@@H](O)CN5C4=O)C(=O)N[C@@H](CC(C)C)C(=O)N[C@@H](Cc4c[nH]cn4)C(=O)N4CCC[C@H]4C(=O)N[C@H](CC(=O)O)C(=O)N[C@@H](Cc4c[nH]c5ccccc45)C(=O)N[C@@H](CCCCNC(=N)N)C(=O)N[C@H](C(N)=O)CSCCC6=O)nn3)C(N)=O)NC1=O)C(=O)CCSC[C@H](NC(=O)[C@H](C)NC(C)=O)C(=O)N[C@@H]([C@@H](C)CC)C(=O)N[C@@H](CCC(=O)O)C(=O)N[C@@H](CCC(=O)O)C(=O)NCC(=O)N[C@@H](CCC(N)=O)C(=O)N[C@@H](Cc1ccc(O)cc1)C(=O)N2 [BCY9648]
- Kd (human EphA2 protein): 1.75 nM
- Kd (CD137 [3]): 202 nM
- EC50 (CD137 [4]): 9.3 nM
- Fold Induction over Background (CD137 [4]): 20 fold

Compound: CCCC[C@@H]1NC(=O)[C@H](Cc2ccc(O)cc2)NC(=O)[C@@H]2CCCN2C(=O)[C@H](CC(=O)O)NC(=O)[C@H](C)NC(=O)[C@H](Cc2ccccc2)NC(=O)[C@@H]2CSCCC(=O)N3CN(CN(C3)C(=O)CCSC[C@@H](C(=O)N[C@@H](C)C(N)=O)NC1=O)C(=O)CCSC[C@H](NC(C)=O)C(=O)N[C@@H](CC(C)(C)C)C(=O)N1CCC[C@H]1C(=O)N[C@@H](CCCCNC(=O)CCc1cn(CCOCCOCCOCCOCCOCCC(=O)N[C@H]3CSCCC(=O)N4CN5CN(C4)C(=O)CCSC[C@H](NC(=O)[C@@H](CC(=O)O)NC(=O)[C@H](Cc4cccc6ccccc46)NC(=O)[C@@H]4CCCN4C3=O)C(=O)N[C@@H](CCSC)C(=O)N[C@@H](CCCCNC(=N)N)C(=O)N[C@@H](CC(=O)O)C(=O)N[C@@H](Cc3c[nH]c4ccccc34)C(=O)N[C@@H](CO)C(=O)N[C@@H]([C@@H](C)O)C(=O)N3CCC[C@H]3C(=O)N3C[C@H](O)C[C@H]3C(=O)N[C@@H](Cc3c[nH]c4ccccc34)C(=O)N[C@H](C(N)=O)CSCCC5=O)nn1)C(=O)N[C@H](C)C(=O)N1CCC[C@H]1C(=O)N[C@@H](Cc1ccc(O)cc1)C(=O)N2 [BCY10571]
- EC50 (CD137 [1]): 3.5 nM
- Fold Induction over Background (CD137 [1]; tumour target Nectin4, co-culture with H1376, 6 h): 60 fold
- EC50 ([2]; IFN-γ secretion): 0.44 nM
- max IFN-y [2]: 18349 pg/mL
